Data as given in ChEMBL document CHEMBL3885881, “DrugMatrix”.

Species: Rattus norvegicus
Assay: DrugMatrix - Regimen: Daily Repeat
Assay type: toxicity, organism-based, Sprague-Dawley
Set-up: regimen Daily Repeat, gender Male, age 6-8 weeks
Details: in vivo, po, route oral GAVAGE, vehicle .5 % CMC; for ABSOLUTE BASOPHIL / ABSOLUTE EOSINOPHIL / ABSOLUTE LYMPHOCYTE / ABSOLUTE MONOCYTE / ABSOLUTE SEGMENTED NEUTROPHIL / BASOPHIL / EOSINOPHIL / ERYTHROCYTE COUNT / HEMATOCRIT / HEMOGLOBIN / LEUKOCYTE COUNT / LYMPHOCYTE / MEAN CORPUSCULAR HEMOGLOBIN / MEAN CORPUSCULAR HEMOGLOBIN CONCENTRATION / MEAN CORPUSCULAR VOLUME / MONOCYTE / NEUTROPHIL / NUCLEATED RED BLOOD CELLS / PLATELET COUNT: tissue Blood; for ALANINE AMINOTRANSFERASE / ALBUMIN / ALKALINE PHOSPHATASE / ASPARTATE AMINOTRANSFERASE / BLOOD UREA NITROGEN / CARBON DIOXIDE / CHLORIDE / CHOLESTEROL / CREATINE PHOSPHOKINASE / CREATININE / GLUCOSE / LACTATE DEHYDROGENASE / LIPASE / PHOSPHORUS / POTASSIUM / SODIUM / TOTAL BILIRUBIN / TOTAL PROTEIN / URIC ACID: tissue Plasma
[1] = 0 mg/kg, 72 h, dose level Control, time 3 day
[2] = 0 mg/kg, 120 h, dose level Control, time 5 day
[3] = 4.5 mg/kg, 72 h, dose level Low, time 3 day

## CC(C(=O)O)c1ccc(-c2ccccc2)c(F)c1 (centres undefined) [FLURBIPROFEN]
[1]
  ABSOLUTE BASOPHIL: 0 CELLS/uL
  ABSOLUTE EOSINOPHIL: 222.83 CELLS/uL
  ABSOLUTE LYMPHOCYTE: 14453 CELLS/uL
  ABSOLUTE MONOCYTE: 0 CELLS/uL
  ABSOLUTE SEGMENTED NEUTROPHIL: 1490.83 CELLS/uL
  BASOPHIL: 0%
  EOSINOPHIL: 1.33%
  ERYTHROCYTE COUNT: 5.76 x10E6/uL
  HEMATOCRIT: 36.52%
  HEMOGLOBIN: 13.45 G/DL
  LEUKOCYTE COUNT: 16.17 x10E3/uL
  LYMPHOCYTE: 89.33%
  MEAN CORPUSCULAR HEMOGLOBIN: 23.37 pg
  MEAN CORPUSCULAR HEMOGLOBIN CONCENTRATION: 36.85 G/DL
  MEAN CORPUSCULAR VOLUME: 63.47 fL
  MONOCYTE: 0%
  NEUTROPHIL: 9.33%
  NUCLEATED RED BLOOD CELLS: 0 /100WBC
  PLATELET COUNT: 1239.5 x10E3/uL
  ALANINE AMINOTRANSFERASE: 43.83 u/L
  ALBUMIN: 4.27 G/DL
  ALKALINE PHOSPHATASE: 398.83 u/L
  ASPARTATE AMINOTRANSFERASE: 81.17 u/L
  BLOOD UREA NITROGEN: 17.67 mg/dL
  CARBON DIOXIDE: 27.5 mmol/L
  CHLORIDE: 99.17 MEQ/L
  CHOLESTEROL: 74 mg/dL
  CREATINE PHOSPHOKINASE: 331.5 u/L
  CREATININE: 0.2 mg/dL
  GLUCOSE: 171.33 mg/dL
  LACTATE DEHYDROGENASE: 241.67 u/L
  LIPASE: 9.5 u/L
  PHOSPHORUS: 12.25 mg/dL
  POTASSIUM: 6.33 MEQ/L
  SODIUM: 141.28 MEQ/L
  TOTAL BILIRUBIN: 0.15 mg/dL
  TOTAL PROTEIN: 5.98 G/DL
  URIC ACID: 1.63 mg/dL
[2]
  ABSOLUTE BASOPHIL: 0 CELLS/uL
  ABSOLUTE EOSINOPHIL: 148.67 CELLS/uL
  ABSOLUTE LYMPHOCYTE: 16020.5 CELLS/uL
  ABSOLUTE MONOCYTE: 29.17 CELLS/uL
  ABSOLUTE SEGMENTED NEUTROPHIL: 1468.33 CELLS/uL
  BASOPHIL: 0%
  EOSINOPHIL: 1%
  ERYTHROCYTE COUNT: 5.78 x10E6/uL
  HEMATOCRIT: 35.77%
  HEMOGLOBIN: 13.4 G/DL
  LEUKOCYTE COUNT: 17.67 x10E3/uL
  LYMPHOCYTE: 90.5%
  MEAN CORPUSCULAR HEMOGLOBIN: 23.22 pg
  MEAN CORPUSCULAR HEMOGLOBIN CONCENTRATION: 37.47 G/DL
  MEAN CORPUSCULAR VOLUME: 61.92 fL
  MONOCYTE: 0.17%
  NEUTROPHIL: 8.33%
  NUCLEATED RED BLOOD CELLS: 0.17 /100WBC
  PLATELET COUNT: 1255.5 x10E3/uL
  ALANINE AMINOTRANSFERASE: 46.5 u/L
  ALBUMIN: 4.38 G/DL
  ALKALINE PHOSPHATASE: 336 u/L
  ASPARTATE AMINOTRANSFERASE: 76.5 u/L
  BLOOD UREA NITROGEN: 20 mg/dL
  CARBON DIOXIDE: 27.5 mmol/L
  CHLORIDE: 101 MEQ/L
  CHOLESTEROL: 71.33 mg/dL
  CREATINE PHOSPHOKINASE: 231.83 u/L
  CREATININE: 0.37 mg/dL
  GLUCOSE: 168.83 mg/dL
  LACTATE DEHYDROGENASE: 174 u/L
  LIPASE: 8.67 u/L
  PHOSPHORUS: 11.48 mg/dL
  POTASSIUM: 6.82 MEQ/L
  SODIUM: 143.8 MEQ/L
  TOTAL BILIRUBIN: 0.2 mg/dL
  TOTAL PROTEIN: 5.98 G/DL
  URIC ACID: 1.83 mg/dL
[3]
  ABSOLUTE BASOPHIL: 0 CELLS/uL
  ABSOLUTE EOSINOPHIL: 292.33 CELLS/uL
  ABSOLUTE LYMPHOCYTE: 14732.33 CELLS/uL
  ABSOLUTE MONOCYTE: 0 CELLS/uL
  ABSOLUTE SEGMENTED NEUTROPHIL: 2542 CELLS/uL
  BASOPHIL: 0%
  EOSINOPHIL: 1.67%
  ERYTHROCYTE COUNT: 5.5 x10E6/uL
  HEMATOCRIT: 34.7%
  HEMOGLOBIN: 12.83 G/DL
  LEUKOCYTE COUNT: 17.57 x10E3/uL
  LYMPHOCYTE: 83.67%
  MEAN CORPUSCULAR HEMOGLOBIN: 23.33 pg
  MEAN CORPUSCULAR HEMOGLOBIN CONCENTRATION: 36.97 G/DL
  MEAN CORPUSCULAR VOLUME: 63.03 fL
  MONOCYTE: 0%
  NEUTROPHIL: 14.67%
  NUCLEATED RED BLOOD CELLS: 0 /100WBC
  PLATELET COUNT: 1184.67 x10E3/uL
  ALANINE AMINOTRANSFERASE: 49.67 u/L
  ALBUMIN: 3.57 G/DL
  ALKALINE PHOSPHATASE: 319 u/L
  ASPARTATE AMINOTRANSFERASE: 69.33 u/L
  BLOOD UREA NITROGEN: 13.33 mg/dL
  CARBON DIOXIDE: 30 mmol/L
  CHLORIDE: 99.67 MEQ/L
  CHOLESTEROL: 69 mg/dL
  CREATINE PHOSPHOKINASE: 219.67 u/L
  CREATININE: 0.25 mg/dL
  GLUCOSE: 168.33 mg/dL
  LACTATE DEHYDROGENASE: 123.67 u/L
  LIPASE: 8.33 u/L
  PHOSPHORUS: 12.13 mg/dL
  POTASSIUM: 6.57 MEQ/L
  SODIUM: 143.2 MEQ/L
  TOTAL BILIRUBIN: 0.23 mg/dL
  TOTAL PROTEIN: 5.37 G/DL
  URIC ACID: 1.77 mg/dL
